Results published in ChEMBL document CHEMBL1131684, “Preparation of amino acid conjugates of betulinic acid with activity against human melanoma” (Bioorg Med Chem Lett, 1999).
Converted amounts (≈) assume the structure as drawn.

Legend:
[1] = tested on: KB; assay: In vitro cytotoxicity (antitumor activity) against human epidermoid carcinoma of mouth cell line (KB); format: functional; settings: read-out: ED50 (the source's name)
[2] = tested on: SK-MEL-2; assay: In vitro cytotoxicity (antitumor activity) against human melanoma (MEL-2) cell lines; format: functional; settings: read-out: ED50 (the source's name)
[3] = Water solubility of the compound; format: ADME; settings: buffer

For `C=C(C)[C@@H]1CC[C@]2(C(=O)N[C@@H](CCC(=O)O)C(=O)O)CC[C@]3(C)[C@H](CC[C@@H]4[C@@]5(C)CC[C@H](O)C(C)(C)[C@@H]5CC[C@]43C)[C@@H]12`, the EC50 [1] was over 20 µg/mL and the EC50 [2] was over 20 µg/mL.

`C=C(C)[C@@H]1CC[C@]2(C(=O)N[C@@H](Cc3ccc(O)cc3)C(=O)O)CC[C@]3(C)[C@H](CC[C@@H]4[C@@]5(C)CC[C@H](O)C(C)(C)[C@@H]5CC[C@]43C)[C@@H]12` gave an EC50 [1] of over 20 µg/mL and an EC50 [2] of over 20 µg/mL.

Work on `C=C(C)[C@@H]1CC[C@]2(C(=O)N[C@@H](Cc3c[nH]c4ccccc34)C(=O)O)CC[C@]3(C)[C@H](CC[C@@H]4[C@@]5(C)CC[C@H](O)C(C)(C)[C@@H]5CC[C@]43C)[C@@H]12` yielded an S [3] of 10 Dilution factor, an EC50 [1] of over 20 µg/mL and an EC50 [2] of 8.6 µg/mL (≈ 13.4 µM).

In the case of `C=C(C)[C@@H]1CC[C@]2(C(=O)N[C@@H](Cc3ccccc3)C(=O)OC)CC[C@]3(C)[C@H](CC[C@@H]4[C@@]5(C)CC[C@H](O)C(C)(C)[C@@H]5CC[C@]43C)[C@@H]12`, the S [3] is reported as 5 Dilution factor, the EC50 [1] is reported as over 20 µg/mL and the EC50 [2] is reported as 9 µg/mL (≈ 14.6 µM).

With `C=C(C)[C@@H]1CC[C@]2(C(=O)N[C@@H](CCSC)C(=O)O)CC[C@]3(C)[C@H](CC[C@@H]4[C@@]5(C)CC[C@H](O)C(C)(C)[C@@H]5CC[C@]43C)[C@@H]12` the S [3] was 5 Dilution factor, the EC50 [1] was over 20 µg/mL and the EC50 [2] was 9 µg/mL (≈ 15.3 µM).

Work on `C=C(C)[C@@H]1CC[C@]2(C(=O)N[C@@H](CC(=O)OC)C(=O)OC)CC[C@]3(C)[C@H](CC[C@@H]4[C@@]5(C)CC[C@H](O)C(C)(C)[C@@H]5CC[C@]43C)[C@@H]12` yielded an EC50 [1] of over 20 µg/mL and an EC50 [2] of over 20 µg/mL.

Compound `C=C(C)[C@@H]1CC[C@]2(C(=O)N[C@@H](CCC(=O)OC)C(=O)OC)CC[C@]3(C)[C@H](CC[C@@H]4[C@@]5(C)CC[C@H](O)C(C)(C)[C@@H]5CC[C@]43C)[C@@H]12` has an S [3] of 20 Dilution factor, an EC50 [1] of over 20 µg/mL and an EC50 [2] of 15.3 µg/mL (≈ 24.9 µM).

For `C=C(C)[C@@H]1CC[C@]2(C(=O)N3CCC[C@H]3C(=O)OC)CC[C@]3(C)[C@H](CC[C@@H]4[C@@]5(C)CC[C@H](O)C(C)(C)[C@@H]5CC[C@]43C)[C@@H]12`, the EC50 [1] was over 20 µg/mL and the EC50 [2] was over 20 µg/mL.

Compound `C=C(C)[C@@H]1CC[C@]2(C(=O)N[C@@H](C)C(=O)OC)CC[C@]3(C)[C@H](CC[C@@H]4[C@@]5(C)CC[C@H](O)C(C)(C)[C@@H]5CC[C@]43C)[C@@H]12` has an S [3] of 30 Dilution factor, an EC50 [1] of over 20 µg/mL and an EC50 [2] of 3.5 µg/mL (≈ 6.46 µM).

Work on `C=C(C)[C@@H]1CC[C@]2(C(=O)O)CC[C@]3(C)[C@H](CC[C@@H]4[C@@]5(C)CC[C@H](O)C(C)(C)[C@@H]5CC[C@]43C)[C@@H]12` [BETULINIC ACID] yielded an S [3] of under 5 Dilution factor, an EC50 [1] of over 20 µg/mL and an EC50 [2] of 4.2 µg/mL (≈ 9.2 µM).

With `C=C(C)[C@@H]1CC[C@]2(C(=O)N[C@@H](CC(C)C)C(=O)O)CC[C@]3(C)[C@H](CC[C@@H]4[C@@]5(C)CC[C@H](O)C(C)(C)[C@@H]5CC[C@]43C)[C@@H]12` the S [3] was 10 Dilution factor, the EC50 [1] was over 20 µg/mL and the EC50 [2] was 9 µg/mL (≈ 15.8 µM).

Compound `C=C(C)[C@@H]1CC[C@]2(C(=O)N[C@H](C(=O)OC)[C@@H](C)CC)CC[C@]3(C)[C@H](CC[C@@H]4[C@@]5(C)CC[C@H](O)C(C)(C)[C@@H]5CC[C@]43C)[C@@H]12` has an EC50 [1] of over 20 µg/mL and an EC50 [2] of over 20 µg/mL.

With `C=C(C)[C@@H]1CC[C@]2(C(=O)N[C@@H](CC(C)C)C(=O)OC)CC[C@]3(C)[C@H](CC[C@@H]4[C@@]5(C)CC[C@H](O)C(C)(C)[C@@H]5CC[C@]43C)[C@@H]12` the S [3] was 5 Dilution factor, the EC50 [1] was over 20 µg/mL and the EC50 [2] was 6.2 µg/mL (≈ 10.6 µM).

`C=C(C)[C@@H]1CC[C@]2(C(=O)N[C@@H](CC(=O)O)C(=O)O)CC[C@]3(C)[C@H](CC[C@@H]4[C@@]5(C)CC[C@H](O)C(C)(C)[C@@H]5CC[C@]43C)[C@@H]12` gave an EC50 [1] of over 20 µg/mL and an EC50 [2] of over 20 µg/mL.

In the case of `C=C(C)[C@@H]1CC[C@]2(C(=O)NCC(=O)O)CC[C@]3(C)[C@H](CC[C@@H]4[C@@]5(C)CC[C@H](O)C(C)(C)[C@@H]5CC[C@]43C)[C@@H]12`, the S [3] is reported as 100 Dilution factor, the EC50 [1] is reported as over 20 µg/mL and the EC50 [2] is reported as 4.2 µg/mL (≈ 8.17 µM).

In the case of `C=C(C)[C@@H]1CC[C@]2(C(=O)NCC(=O)OC)CC[C@]3(C)[C@H](CC[C@@H]4[C@@]5(C)CC[C@H](O)C(C)(C)[C@@H]5CC[C@]43C)[C@@H]12`, the S [3] is reported as 50 Dilution factor, the EC50 [1] is reported as over 20 µg/mL and the EC50 [2] is reported as 10.2 µg/mL (≈ 19.3 µM).

`C=C(C)[C@@H]1CC[C@]2(C(=O)N[C@@H](Cc3ccccc3)C(=O)O)CC[C@]3(C)[C@H](CC[C@@H]4[C@@]5(C)CC[C@H](O)C(C)(C)[C@@H]5CC[C@]43C)[C@@H]12` showed an EC50 [1] of over 20 µg/mL and an EC50 [2] of over 20 µg/mL.

Work on `C=C(C)[C@@H]1CC[C@]2(C(=O)N[C@H](C(=O)O)[C@@H](C)CC)CC[C@]3(C)[C@H](CC[C@@H]4[C@@]5(C)CC[C@H](O)C(C)(C)[C@@H]5CC[C@]43C)[C@@H]12` yielded an EC50 [1] of over 20 µg/mL and an EC50 [2] of over 20 µg/mL.

`C=C(C)[C@@H]1CC[C@]2(C(=O)N[C@H](C(=O)O)C(C)C)CC[C@]3(C)[C@H](CC[C@@H]4[C@@]5(C)CC[C@H](O)C(C)(C)[C@@H]5CC[C@]43C)[C@@H]12` gave an S [3] of 20 Dilution factor, an EC50 [1] of 9 µg/mL (≈ 16.2 µM) and an EC50 [2] of 9 µg/mL (≈ 16.2 µM).

`C=C(C)[C@@H]1CC[C@]2(C(=O)N[C@H](C(=O)OC)C(C)C)CC[C@]3(C)[C@H](CC[C@@H]4[C@@]5(C)CC[C@H](O)C(C)(C)[C@@H]5CC[C@]43C)[C@@H]12` gave an S [3] of 5 Dilution factor, an EC50 [1] of over 20 µg/mL and an EC50 [2] of 2.1 µg/mL (≈ 3.69 µM).

`C=C(C)[C@@H]1CC[C@]2(C(=O)N[C@@H](Cc3c[nH]c4ccccc34)C(=O)OC)CC[C@]3(C)[C@H](CC[C@@H]4[C@@]5(C)CC[C@H](O)C(C)(C)[C@@H]5CC[C@]43C)[C@@H]12` showed an EC50 [1] of over 20 µg/mL and an EC50 [2] of over 20 µg/mL.

With `C=C(C)[C@@H]1CC[C@]2(C(=O)N[C@@H](C)C(=O)O)CC[C@]3(C)[C@H](CC[C@@H]4[C@@]5(C)CC[C@H](O)C(C)(C)[C@@H]5CC[C@]43C)[C@@H]12` the S [3] was 50 Dilution factor, the EC50 [1] was 4.6 µg/mL (≈ 8.72 µM) and the EC50 [2] was 1.5 µg/mL (≈ 2.84 µM).

In the case of `C=C(C)[C@@H]1CC[C@]2(C(=O)N[C@@H](Cc3ccc(O)cc3)C(=O)OC)CC[C@]3(C)[C@H](CC[C@@H]4[C@@]5(C)CC[C@H](O)C(C)(C)[C@@H]5CC[C@]43C)[C@@H]12`, the EC50 [1] is reported as over 20 µg/mL and the EC50 [2] is reported as over 20 µg/mL.

Compound `C=C(C)[C@@H]1CC[C@]2(C(=O)N[C@@H](CCSC)C(=O)OC)CC[C@]3(C)[C@H](CC[C@@H]4[C@@]5(C)CC[C@H](O)C(C)(C)[C@@H]5CC[C@]43C)[C@@H]12` has an S [3] of 5 Dilution factor, an EC50 [1] of over 20 µg/mL and an EC50 [2] of 12.8 µg/mL (≈ 21.3 µM).

`C=C(C)[C@@H]1CC[C@]2(C(=O)N3CCC[C@H]3C(=O)O)CC[C@]3(C)[C@H](CC[C@@H]4[C@@]5(C)CC[C@H](O)C(C)(C)[C@@H]5CC[C@]43C)[C@@H]12` gave an S [3] of 20 Dilution factor, an EC50 [1] of over 20 µg/mL and an EC50 [2] of 13.1 µg/mL (≈ 23.7 µM).
